The test system of series [1] is cob(III)alamin reductase (CR). As to conditions: literature study (reference 15); cited from earlier work.
The test system of series [2] is patients with a functional Vitamin B12 deficiency and suffering from a neuropsychiatric abnormality. Put plainly: cognitive component of the Alzheimer Disease Assessment Scale (ADAS-Cog) in treated patients. Format: in vivo, human. As for the experimental part: (§1) Cognitive scores (Mini Metal State Examination (MMSE) and the cognitive component of the Alzheimer Disease Assessment Scale (ADAS-Cog)) were recorded for cases and controls (16, 17).
(§2) The effect of generating a cobalt-sulphur bond by the co-administration of hydroxocobalamin and a glutathione precursor (N-acetyl cysteine or α-lipoic acid) on the symptoms of seven patients suffering from neuropsychiatric abnormalities was investigated.

For series [3] the test system is unchanged. Put plainly: clinical observation of symptoms and behaviour in case reports (Example 2). Format: in vivo, human.
Excerpt: as §2

Series [4] in a line: side effects reported by patients. In kind it is in vivo, human.
Series [5] has as its system patients with a functional Vitamin B12 deficiency and suffering from a neuropsychiatric abnormality. Put plainly: Mini-Mental State Examination (MMSE) in treated patients. Format: in vivo, human. As for the experimental part:
as §1, §2

Series [6] is described as follows: serum homocysteine level under treatment. Format: in vivo, human. The conditions noted are these: Patient 4; monthly hydroxocobalamin plus oral folate, 1999; 23.7 μmol/l before treatment.
Setting [7] is: Patient 1, N-acetyl cysteine 600 mg daily added to monthly hydroxocobalamin, two weeks.
The mark [8] stands for this setting: Patient 7, 600 mg NAC daily added to hydroxocobalamin and folate, one month.
[9] abbreviates: Patient 4, N-acetylcysteine 600 mg daily added to B-vitamin supplementation.
Setting [10] is: Patient 4, monthly hydroxocobalamin plus oral folate, 1999.

These results are taken from US7709460B2, “Method for treating or preventing a functional vitamin B12 deficiency in an individual and medical compositions for use in said method” (Cobalz Limited, priority 2001, dated 2010).

Turning to `C/C1=C2/[N-][C@H]([C@H](CC(N)=O)[C@@]2(C)CCC(=O)NC[C@@H](C)OP(=O)([O-])O[C@H]2[C@@H](O)[C@@H](n3cnc4cc(C)c(C)cc43)O[C@@H]2CO)[C@]2(C)N=C(/C(C)=C3N=C(/C=C4N=C1[C@@H](CCC(N)=O)C\4(C)C)[C@@H](CCC(N)=O)[C@]\3(C)CC(N)=O)[C@@H](CCC(N)=O)[C@]2(C)CC(N)=O.[CH2-][C@H]1O[C@@H](n2cnc3c(N)ncnc32)[C@H](O)[C@@H]1O.[Co]` [Ado-Cbl, adenosyl cobalamin], in series [1], the “use as substrate / reductase activity” value was “Little or no reductase activity”.

As to `CC(=O)N[C@@H](CS)C(=O)O` [N-acetyl cysteine], the “improvement on the ADAS-Cog score” value in series [2] (Patient 1, N-acetyl cysteine 600 mg daily added to hydroxocobalamin, two weeks vs before) is listed as “eight”. Moreover, in series [2] (setting [7]), the ADAS-Cog score was 20/70. The “further change on the ADAS-Cog score” value in series [2] (Patient 1, N-acetyl cysteine added to hydroxocobalamin, four-week assessment) is “gained an additional point”. The “points gained on ADAS-Cog score” value in series [2] (setting [8]) is on record as 6 points. In series [3] (Patient 1, N-acetyl cysteine 600 mg daily added to hydroxocobalamin, two weeks), the “clinical response (husband's report)” value is on record as “some noticeable improvement in their memory”. In addition, the “clinical response (family and nursing staff)” value in series [3] (Patient 3, severe dementia, oral N-acetyl cysteine 600 mg daily added to hydroxocobalamin) is listed as “significant improvement in their condition”. For the same compound, the “clinical response (behaviour)” value in series [3] (setting [9]) is reported as “their behaviour was considerably improved”. Further, the “frequency of vitamin B12 injections needed” value in series [3] (Patient 5, N-Acetylcysteine 400 mg daily, after three months, three times weekly before) is recorded as “once weekly”. The clinical response result in series [3] (Patient 5, oral N-Acetylcysteine 400 mg daily added to vitamin B12 regime, after a month) was “more lively and with less headaches”; in series [3] (Patient 6, NAC 100 mg daily added to 1 mg oral cobalamin and 5 mg folic acid daily, 4 months), “definitely improved”. In series [3] (setting [8]), the “clinical response (staff comment)” value is “less agitated, and more contented”. Further, the side effects entry is on record as “some gastroenteric side effects” in series [4] (Patient 5, oral N-Acetylcysteine 400 mg daily) and “gastro intestinal side effects” in series [4] (Patient 6, NAC, limited them to 100 mg daily). Moreover, the MMSE score in series [5] (setting [7]) was 21/30; in series [5] (Patient 2, oral N-acetylcysteine 600 mg added to hydroxocobalamin, one month), 25/30. Besides, the cognitive score entry in series [5] (setting [9]) is “no improvement in their cognitive score”.

Consider `Nc1nc2ncc(CNc3ccc(C(=O)N[C@@H](CCC(=O)O)C(=O)O)cc3)nc2c(=O)[nH]1` [folic acid], for which the clinical response entry in series [3] (Patient 2, age-associated memory impairment, folic acid supplements for some months) is reported as “no significant change in their symptoms”.

With `C/C1=C2/[N-][C@H]([C@H](CC(N)=O)[C@@]2(C)CCC(=O)NC[C@@H](C)OP(=O)([O-])O[C@H]2[C@@H](O)[C@@H](n3cnc4cc(C)c(C)cc43)O[C@@H]2CO)[C@]2(C)N=C(/C(C)=C3N=C(/C=C4N=C1[C@@H](CCC(N)=O)C\4(C)C)[C@@H](CCC(N)=O)[C@]\3(C)CC(N)=O)[C@@H](CCC(N)=O)[C@]2(C)CC(N)=O.[Co+3].[OH-]` [hydroxocobalamin], the ADAS-Cog score in series [2] (Patient 1, regular monthly hydroxocobalamin alone, February 2001) is reported as 28/70; in series [2] (setting [10]) it was 70; in series [2] (Patient 7, weekly hydroxocobalamin with oral folate, before NAC), 68. Also, the clinical response result was “neuropsychiatric symptoms were initially much improved” in series [3] (Patient 1, monthly injections of hydroxocobalamin, from 1994); “their mental condition continued to deteriorate” in series [3] (Patient 3, probable Alzheimer-type dementia, monthly hydroxocobalamin, ensuing 2 years); “their cognitive function continued to slowly deteriorate” in series [3] (Patient 4, probable Alzheimer-type dementia, monthly hydroxocobalamin plus folic acid 5 mg daily). Moreover, in series [3] (Patient 2, monthly injections of hydroxocobalamin), the “clinical response (husband's report)” value is recorded as “no significant change in their condition”. The cognitive function result in series [3] (Patient 7, vascular dementia, weekly hydroxocobalamin injections with oral folate supplement) was “no significant improvement in their cognitive function”. The serum homocysteine level in series [6] worked out at 5.7 µmol/L. The MMSE score in series [5] (Patient 1, regular monthly hydroxocobalamin injections alone, February 2001, before N-acetyl cysteine) is recorded as 18/30; in series [5] (Patient 2, monthly hydroxocobalamin, after 6 months) it was 21/30; in series [5] (Patient 3, on monthly hydroxocobalamin, cognitive review in 1997), 13/30; in series [5] (setting [10]) it was 5/30.

Regarding `C/C1=C2/[N-][C@H]([C@H](CC(N)=O)[C@@]2(C)CCC(=O)NC[C@H](C)OP(=O)([O-])O[C@H]2[C@@H](O)[C@@H](n3cnc4cc(C)c(C)cc43)O[C@@H]2CO)[C@]2(C)N=C(/C(C)=C3N=C(/C=C4N=C1[C@@H](CCC(N)=O)C\4(C)C)[C@@H](CCC(N)=O)[C@]\3(C)CC(N)=O)[C@@H](CCC(N)=O)[C@]2(C)CC(N)=O.[CH3-].[Co+3]` [methylcobalamin], the clinical response entry in series [3] (Patient 5, Chronic Fatigue Syndrome, subcutaneous methylcobalamin twice weekly) is “clear improvement after only their third injection”. Also, in series [3] (Patient 5, methylcobalamin injections withdrawn in 1994), the “clinical condition on withdrawal of injections” value is recorded as “marked deterioration in relation to the withdrawal of these injections”. Moreover, the “use as substrate / reductase activity” value in series [1] is given as “Little or no reductase activity”.

On to `O=C(O)CCCCC1CCSS1` (stereo not drawn) [α-lipoic acid], for which, in series [3] (Patient 4, changed from N-acetylcysteine to α-lipoic acid 50 mg twice daily, with B vitamins), the clinical response entry is reported as “clinical improvement was maintained one year later”.

Regarding cyanocobalamin [CN-Cbl], in series [1], the “use as substrate / reductase activity” value was “Little or no reductase activity”.

On to vitamin B12, for which the clinical response entry in series [3] (Patient 6, presumed multiple sclerosis, regular injections of vitamin B12) was “very apparent improvement in their symptoms”.
